# Laboratory results as given in patent publication US6379649B1, “Imidazo(1,2-a)pyridines as peripheral benzodiazepine receptor binding agents” (Australian Nuclear Science & Technology Organisation, priority 1998, dated 2002).
# Like-named read-outs stand apart in the source and are kept apart here.
# Columns and labels:
# [1] = biological target: central benzodiazepine receptor; assay: In vitro binding assay for central benzodiazepine receptors ([^3H]-Ro 15-1788, rat cortex membranes); conditions: rat cortex membrane / rat brain homogenates, [^3H]-Ro 15-1788 2 nM, 25° C., 45 minutes; read-out: IC50 (nM) CBR
# Procedure: In Vitro Binding Assays for Central Benzodiazepine Receptors
# Male Sprague Dawley rats are sacrificed by CO2 administration followed by cervical dislocation. Cortex is removed and placed in 20 volumes of ice-cold buffer ([…] Tris-HCl, pH 7.4) and minced finely with scissors. After homogenising the preparation will a polytron (PCU Kinematica, Bioblock, Switzerland) with one 10-second burst at a setting of 6, the suspension is centrifuged at 20,000 g for 20 minutes at 4° C. The pellets are resuspended in the previous buffer with a dounce (manual homogeniser). After the second centrifugation, the pellet is suspended in a final buffer (50 nM Tris/HCl, 0.32M sucrose, pH 7.4) to yield an appropriate protein concentration. Protein measurements are made by Lowry's method using bovine serum albumin as standard.
# (§1) Non-specific binding is determined by blocking with cold Flumazenil (20 μM). Incubation is terminated by rapid filtration through Whatman GF/B glass fiber. Each sample tube and filter is immediately washed with 3 aliquots of 5 mL ice-cold […] Tris/HCl at pH 7.4. Filters are counted with a β-scintillation counter (Packard) to measure the amount of bound radioactivity. Ki and IC50 are calculated by EBDA/Ligand, iterative non-linear least squares curve-fitting programs (G. A. McPherson, J. Pharmacol. Methods 14, 213-228 (1985)).
# [2] = biological target: peripheral benzodiazepine receptor (Rattus norvegicus, UniProt P16257); assay: In vitro binding assay for peripheral benzodiazepine receptors ([^3H]-PK11195, rat kidney membranes); set-up: diluted kidney membrane preparation; from tissue; host or cells: rat kidney membranes (Sprague Dawley)
# Procedure: In Vitro Binding Assays for Peripheral Benzodiazepine Receptors
# Male Sprague Dawley rats are sacrificed by CO2 administration followed by cervical dislocation. Kidneys are removed and placed in 20 volumes of ice-cold buffer ([…] Tris-HCl, pH 7.4) and minced finely with scissors. After homogenising the preparation with a polytron (PCU Kintematica, Bioblock, Switzerland) with one 10-second burst at a setting of 10, the suspension is centrifuged at 49,000 g for 15 minutes at 4° C. The pellets are resuspended in the previous buffer with a dounce (manual homogeniser) to yield an appropriate protein concentration. Protein measurements are made by Lowry's method using bovine serum albumin as standard.
# as §1, with “PK11195 (10” for “Flumazenil (20”, “programs.” for “programs (G. A. McPherson, J. Pharmacol. Methods 14, 213-228 (1985)).”
# [3] = In vivo biodistribution of radiolabelled compounds in rats
# From the text: In vivo biodistribution of radiolabelled compounds of the invention indicated high uptake in the tissues which have known PBR sites. Tables 2 to 4 show the biodistribution of the compounds of Examples 1-3, in which the iodine atom is radiolabelled, when administered to rats.
# peripheral benzodiazepine receptor, sequence (P16257 whole entry): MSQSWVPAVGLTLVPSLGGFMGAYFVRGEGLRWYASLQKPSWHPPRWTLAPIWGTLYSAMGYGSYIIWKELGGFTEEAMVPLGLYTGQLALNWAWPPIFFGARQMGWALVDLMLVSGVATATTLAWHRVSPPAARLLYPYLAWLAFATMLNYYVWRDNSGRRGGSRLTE
smiles,measurement,setting,value
CNC(=O)Cc1c(-c2ccc(F)cc2)nc2ccc(Cl)cn12 [B],IC50,[1],5.9 nM
same,melting point,,254 to 256 °C
same,IC50,[2],> 1000 nM
CNC(=O)Cc1c(-c2ccc(Cl)cc2)nc2ccc(Br)cn12 [C],IC50,[1],15 nM
same,melting point,,298 to 300 °C
same,IC50,[2],33 nM
"CCN(CC)C(=O)Cc1c(-c2ccc(I)cc2)nc2ccc(Cl)cn12 [Example 3, 6-chloro-2-(4′-iodophenyl)-imidazo[1,2-a]pyridine-3-(N,N-diethyl)acetamide]",IC50,[1],> 1000 nM
same,IC50,[2],< 0.01 nM
"CCCN(C)C(=O)Cc1c(-c2ccc(I)cc2)nc2ccc(Cl)cn12 [Example 4, 6-chloro-2-(4′-iodophenyl)-imidazo[1,2-a]pyridine-3-(N-methyl, N-propyl)-acetamide]",IC50,[1],117 nM
same,melting point,,170 to 172 °C
same,IC50,[2],0.98 nM
"CNC(=O)Cc1c(-c2ccc(I)cc2)nc2ccc(Cl)cn12 [Example 1, 6-chloro-2-(4′-iodophenyl)-imidazol[1,2-a]pyridine-3-(N-methyl)acetamide]",IC50,[1],> 1000 nM
same,melting point,,308 to 310 °C
same,IC50,[2],0.99 nM
CNC(=O)Cc1c(-c2ccc([123I])cc2)nc2ccc(Cl)cn12 [^123-I Example 1],Biodistribution (% ID/g organ) Adrenals,[3]; 5 Min,4.51 ± 1.32 % ID/g organ
same,Biodistribution (% ID/g organ) Adrenals,[3]; 15 Min,7.8 ± 2.16 % ID/g organ
same,Biodistribution (% ID/g organ) Adrenals,[3]; 24 Hrs,0.22 ± 0.09 % ID/g organ
same,Biodistribution (% ID/g organ) Adrenals,[3]; 30 Min,11 ± 2.57 % ID/g organ
same,Biodistribution (% ID/g organ) Adrenals,[3]; 60 Min,11.3 ± 0.87 % ID/g organ
same,Biodistribution (% ID/g organ) Adrenals,[3]; 180 Min,9.84 ± 1.69 % ID/g organ
same,Biodistribution (% ID/g organ) Adrenals,[3]; 240 Min,6.78 ± 1.27 % ID/g organ
same,Biodistribution (% ID/g organ) Adrenals,[3]; 360 Min,5.7 ± 0.15 % ID/g organ
same,Biodistribution (% ID/g organ) Blood,[3]; 5 Min,0.25 ± 0.04 % ID/g organ
same,Biodistribution (% ID/g organ) Blood,[3]; 15 Min,0.16 ± 0.01 % ID/g organ
same,Biodistribution (% ID/g organ) Blood,[3]; 24 Hrs,0.01 ± 0.001 % ID/g organ
same,Biodistribution (% ID/g organ) Blood,[3]; 30 Min,0.12 ± 0.01 % ID/g organ
same,Biodistribution (% ID/g organ) Blood,[3]; 60 Min,0.1 ± 0.01 % ID/g organ
same,Biodistribution (% ID/g organ) Blood,[3]; 180 Min,0.07 ± 0.001 % ID/g organ
same,Biodistribution (% ID/g organ) Blood,[3]; 240 Min,0.06 ± 0.01 % ID/g organ
same,Biodistribution (% ID/g organ) Blood,[3]; 360 Min,0.05 ± 0.001 % ID/g organ
same,Biodistribution (% ID/g organ) Brain,[3]; 5 Min,0.11 ± 0.02 % ID/g organ
same,Biodistribution (% ID/g organ) Brain,[3]; 15 Min,0.08 ± 0.01 % ID/g organ
same,Biodistribution (% ID/g organ) Brain,[3]; 24 Hrs,0 % ID/g organ
same,Biodistribution (% ID/g organ) Brain,[3]; 30 Min,0.06 ± 0.01 % ID/g organ
same,Biodistribution (% ID/g organ) Brain,[3]; 60 Min,0.04 ± 0.001 % ID/g organ
same,Biodistribution (% ID/g organ) Brain,[3]; 180 Min,0.03 ± 0.001 % ID/g organ
same,Biodistribution (% ID/g organ) Brain,[3]; 240 Min,0.02 ± 0.01 % ID/g organ
same,Biodistribution (% ID/g organ) Brain,[3]; 360 Min,0.02 ± 0.001 % ID/g organ
same,Biodistribution (% ID/g organ) Heart,[3]; 5 Min,3.25 ± 0.58 % ID/g organ
same,Biodistribution (% ID/g organ) Heart,[3]; 15 Min,2.09 ± 0.09 % ID/g organ
same,Biodistribution (% ID/g organ) Heart,[3]; 24 Hrs,0.02 ± 0.001 % ID/g organ
same,Biodistribution (% ID/g organ) Heart,[3]; 30 Min,1.41 ± 0.14 % ID/g organ
same,Biodistribution (% ID/g organ) Heart,[3]; 60 Min,1.07 ± 0.09 % ID/g organ
same,Biodistribution (% ID/g organ) Heart,[3]; 180 Min,0.68 ± 0.09 % ID/g organ
same,Biodistribution (% ID/g organ) Heart,[3]; 240 Min,0.54 ± 0.05 % ID/g organ
same,Biodistribution (% ID/g organ) Heart,[3]; 360 Min,0.38 ± 0.02 % ID/g organ
same,Biodistribution (% ID/g organ) Kidney,[3]; 5 Min,1.8 ± 0.35 % ID/g organ
same,Biodistribution (% ID/g organ) Kidney,[3]; 15 Min,1.66 ± 0.13 % ID/g organ
same,Biodistribution (% ID/g organ) Kidney,[3]; 24 Hrs,0.03 ± 0.001 % ID/g organ
same,Biodistribution (% ID/g organ) Kidney,[3]; 30 Min,1.25 ± 0.09 % ID/g organ
same,Biodistribution (% ID/g organ) Kidney,[3]; 60 Min,0.97 ± 0.07 % ID/g organ
same,Biodistribution (% ID/g organ) Kidney,[3]; 180 Min,0.61 ± 0.02 % ID/g organ
same,Biodistribution (% ID/g organ) Kidney,[3]; 240 Min,0.5 ± 0.07 % ID/g organ
same,Biodistribution (% ID/g organ) Kidney,[3]; 360 Min,0.36 ± 0.01 % ID/g organ
same,Biodistribution (% ID/g organ) Liver,[3]; 5 Min,0.94 ± 0.12 % ID/g organ
same,Biodistribution (% ID/g organ) Liver,[3]; 15 Min,0.7 ± 0.07 % ID/g organ
same,Biodistribution (% ID/g organ) Liver,[3]; 24 Hrs,0.09 ± 0.01 % ID/g organ
same,Biodistribution (% ID/g organ) Liver,[3]; 30 Min,0.59 ± 0.04 % ID/g organ
same,Biodistribution (% ID/g organ) Liver,[3]; 60 Min,0.47 ± 0.02 % ID/g organ
same,Biodistribution (% ID/g organ) Liver,[3]; 180 Min,0.37 ± 0.01 % ID/g organ
same,Biodistribution (% ID/g organ) Liver,[3]; 240 Min,0.33 ± 0.04 % ID/g organ
same,Biodistribution (% ID/g organ) Liver,[3]; 360 Min,0.27 ± 0.01 % ID/g organ
same,Biodistribution (% ID/g organ) Lungs,[3]; 5 Min,2.81 ± 0.49 % ID/g organ
same,Biodistribution (% ID/g organ) Lungs,[3]; 15 Min,1.79 ± 0.18 % ID/g organ
same,Biodistribution (% ID/g organ) Lungs,[3]; 24 Hrs,0.02 ± 0.001 % ID/g organ
same,Biodistribution (% ID/g organ) Lungs,[3]; 30 Min,1.39 ± 0.14 % ID/g organ
same,Biodistribution (% ID/g organ) Lungs,[3]; 60 Min,0.97 ± 0.22 % ID/g organ
same,Biodistribution (% ID/g organ) Lungs,[3]; 180 Min,0.72 ± 0.05 % ID/g organ
same,Biodistribution (% ID/g organ) Lungs,[3]; 240 Min,0.63 ± 0.05 % ID/g organ
same,Biodistribution (% ID/g organ) Lungs,[3]; 360 Min,0.44 ± 0.07 % ID/g organ
same,Biodistribution (% ID/g organ) Olfactive bulbs,[3]; 5 Min,0.2 ± 0.02 % ID/g organ
same,Biodistribution (% ID/g organ) Olfactive bulbs,[3]; 15 Min,0.18 ± 0.03 % ID/g organ
same,Biodistribution (% ID/g organ) Olfactive bulbs,[3]; 24 Hrs,0.01 ± 0.001 % ID/g organ
same,Biodistribution (% ID/g organ) Olfactive bulbs,[3]; 30 Min,0.13 ± 0.02 % ID/g organ
same,Biodistribution (% ID/g organ) Olfactive bulbs,[3]; 60 Min,0.14 ± 0.001 % ID/g organ
same,Biodistribution (% ID/g organ) Olfactive bulbs,[3]; 180 Min,0.09 ± 0.02 % ID/g organ
same,Biodistribution (% ID/g organ) Olfactive bulbs,[3]; 240 Min,0.07 ± 0.001 % ID/g organ
same,Biodistribution (% ID/g organ) Olfactive bulbs,[3]; 360 Min,0.05 ± 0.001 % ID/g organ
same,Biodistribution (% ID/g organ) Testes,[3]; 5 Min,0.14 ± 0.03 % ID/g organ
same,Biodistribution (% ID/g organ) Testes,[3]; 15 Min,0.22 ± 0.06 % ID/g organ
same,Biodistribution (% ID/g organ) Testes,[3]; 24 Hrs,0.01 ± 0.001 % ID/g organ
same,Biodistribution (% ID/g organ) Testes,[3]; 30 Min,0.26 ± 0.05 % ID/g organ
same,Biodistribution (% ID/g organ) Testes,[3]; 60 Min,0.28 ± 0.05 % ID/g organ
same,Biodistribution (% ID/g organ) Testes,[3]; 180 Min,0.25 ± 0.01 % ID/g organ
same,Biodistribution (% ID/g organ) Testes,[3]; 240 Min,0.22 ± 0.03 % ID/g organ
same,Biodistribution (% ID/g organ) Testes,[3]; 360 Min,0.16 ± 0.03 % ID/g organ
"Cc1ccc2nc(-c3ccc(I)cc3)c(CC(=O)N(C)C)n2c1 [E, 6-methyl-2-(4′-iodophenyl)imidazo[1,2-a]pyridine-3-(N,N-dimethyl)acetamide, reference compound]",IC50,[1],155 nM
same,IC50,[2],176 nM
CN(C)C(=O)Cc1c(-c2ccc(Cl)cc2)nc2ccc(Br)cn12 [D],IC50,[1],56.5 nM
same,melting point,,234 to 236 °C
same,IC50,[2],90 nM
"CCCN(CCC)C(=O)Cc1c(-c2ccc(I)cc2)nc2ccc(Cl)cn12 [Example 5, 6-chloro-2-(4′-iodophenyl)-imidazo[1,2-a]pyridine-3-(N,N-dipropyl)-acetamide]",IC50,[1],> 1000 nM
same,melting point,,152 to 153 °C
same,IC50,[2],3.91 nM
"CCCCN(CCCC)C(=O)Cc1c(-c2ccc(I)cc2)nc2ccc(Cl)cn12 [Example 7, 6-chloro-2-(4′-iodophenyl)-imidazo[1,2-a]pyridine-3-(N,N-dibutyl)-acetamide]",IC50,[1],> 1000 nM
same,melting point,,250 to 252 °C
same,IC50,[2],177 nM
NC(=O)Cc1c(-c2ccc(F)cc2)nc2ccc(Cl)cn12 [Comparative Example A],IC50,[1],170 nM
same,melting point,,250 to 252 °C
same,IC50,[2],3340 nM
"CCCCN(C)C(=O)Cc1c(-c2ccc(I)cc2)nc2ccc(Cl)cn12 [Example 6, 6chloro-2-(4′-iodophenyl)-imidazo[1,2-a]pyridine-3-(N-methyl, N-butyl)-acetamide]",IC50,[1],> 1000 nM
same,IC50,"[2]; rat kidney membrane, [^3H]-PK11195 2 nM, 4° C., 1 hour, read-out: IC50 (nM) PBR",266 nM
